Tested on: declawed cats with chronic distal thoracic limb pain
Test: Adverse events in open-label multicenter trial of perineural RTX in declawed cats
Type: in vivo, cat
Details: for Animals with self-limiting reactions related to the treatment: during recovery from anesthesia
Description: Cats suffering from severe bilateral chronic pain (more than 90 days) as a result of severe complications after onychectomy were enrolled in this study (an exploratory, open-label, multicenter clinical trial). Thirteen (13) cases were treated for initial pain and reduced quality of life (QoL). Then, bilateral perineural distal limb injections (ring block technique) were administered under general anesthesia (a combination of diphenhydramine, buprenorphine, dexmedetomidine, ketamine, and isoflurane). Following a published technique (Enomoto et al., 2016) for the nerve block of the manus of the cat, the total dose of RTX was equally distributed adjacent to the 1) superficial branch of the radial nerve, 2) dorsal branch of the ulnar nerve, 3) median nerve and superficial branch of the palmar branch of the ulnar nerve, and 4) deep branch of palmar branch of the ulnar nerve. A total of 2.5 ug (1.25 ug/1 mL per forelimb in Group 1, n=7) and 5 ug (2.5 ug/1 mL per forelimb in Group 2, n=6) of RTX was injected as a one-time treatment. Group 2 included the cat for which detailed results are provided in Example B above. Monitoring of QoL and pain for the following 28 days was accomplished using the Client-Specific Outcome Measures feline (CSOMf), the Feline Musculoskeletal Pain Index (FMPI), two post-injection physical examinations, and videography on days 3, 7, 14, and 28 post injections.

## C=C(C)[C@]12C[C@@H](C)[C@@]34O[C@](Cc5ccccc5)(O[C@@H]1[C@@H]3C=C(COC(=O)Cc1ccc(O)c(OC)c1)C[C@]1(O)C(=O)C(C)=C[C@@H]41)O2 [RTX, resiniferatoxin]
2.5 ug and 5 ug total per cat
  Tolerability of perineural RTX at the described doses: well tolerated
Group 1 (2.5 ug total)
  Adverse event: hypersalivation: 71.4%
  Adverse event: panting: 57.1%
  Adverse event: vocalization: 57.1%
Group 1 (2.5 ug total), 26/30
  AEs presented and resolved the same day of administration: 86.6%
Group 1 (2.5 ug total, 1.25 ug per forelimb, n=7)
  Animals with self-limiting reactions related to the treatment: 71.4%
Group 2 (5 ug total)
  Adverse event: hypersalivation: 50%
  Adverse event: panting: 83.3%
  Adverse event: vocalization: 83.3%
Group 2 (5 ug total), 21/22
  AEs presented and resolved the same day of administration: 95.4%
Group 2 (5 ug total, 2.5 ug per forelimb, n=6)
  Animals with self-limiting reactions related to the treatment: 100%
Both groups
  AEs presented and resolved the same day of administration: more than 85%
  Time to resolution of most common adverse events after treatment: ≤ 4 h

— patent publication US12144886B2, “Perineural administration of resiniferatoxin for treatment of maladaptive pain” (Sorrento Therapeutics, Inc., priority 2018, dated 2024)
